Molecules are shown by their SMILES.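 Values below derive from 48-hour exposures of cells grown in 96-well plates, with endpoints linearly interpolated between the two concentrations bracketing the appropriate inhibition level. Here, GI50 denotes the concentration required for 50% inhibition of growth.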 Activity calls are given as the source filed them. Rule as the data show it: active = GI50 up to about 1.1 µM and inactive = higher.

Test systems include EKVX; NCI/ADR-RES; SN12C; HCT-116; SK-MEL-5; SK-MEL-28; MOLT-4; SF-268; HOP-62; RXF 393; SF-539; U-251; NCI-H460; MDA-MB-435; CCRF-CEM; TK-10; HCT-15; SW-620; HOP-92; Malme-3M.
Common to all, as to assay: NCI tumour cell line growth inhibition, 48 h

For `CC[C@H](C)[C@H]1NC(=O)[C@@H](NC(=O)[C@@H](CC(C)C)N(C)C(=O)C2CCCN2C(=O)[C@H](C)O)[C@@H](C)OC(=O)[C@@H]2Cc3ccccc3CN2C(=O)[C@@H]2CCCN2C(=O)[C@H](CC(C)C)NC(=O)[C@@H](C)C(=O)[C@H](C(C)C)OC(=O)C[C@@H]1O` (stereo not given in full), the GI50 in the assay with EKVX was 2.52 µM (inactive); with NCI/ADR-RES, > 100 µM (inactive); in the assay on SN12C, 0.271 µM (active); with HCT-116 it was 0.144 µM (active); with SK-MEL-5 it was 0.164 µM (active); in the assay on SK-MEL-28, 0.231 µM (active). The GI50 with MOLT-4 is 0.17 µM (active); with SF-268, 0.327 µM (active); in the assay with HOP-62 it was 0.385 µM (active); with RXF 393, 0.802 µM (active); with SF-539, 0.267 µM (active); with U-251, 0.0586 µM (active). For the same compound, the GI50 in the assay with NCI-H460 was 0.171 µM (active); with MDA-MB-435, 0.374 µM (active); in the assay on CCRF-CEM, 0.106 µM (active); in the assay on TK-10, 2.62 µM (inactive); in the assay on HCT-15 it was more than 47.2 µM; in the assay with SW-620, 0.555 µM (active). The GI50 in the assay with HOP-92 is 1.58 µM (inactive); in the assay on Malme-3M, 0.34 µM (active).
On to `Cc1cc(O)ccc1C1(c2ccc(F)cc2)OC(=O)c2ccccc21` (stereo not given), for which the GI50 in the assay with EKVX was 3.18 µM (inactive); with NCI/ADR-RES it was 0.415 µM (active); in the assay with SN12C, 0.485 µM (active); with HCT-116 it was 3.21 µM (inactive); with SK-MEL-5, 11.3 µM (inactive); in the assay with SK-MEL-28, 13.1 µM (inactive). Moreover, the GI50 in the assay with MOLT-4 is 15.5 µM (inactive); in the assay on SF-268, 7.73 µM (inactive); in the assay with HOP-62, 5.65 µM (inactive); in the assay on RXF 393, 1.24 µM (inactive); in the assay with SF-539 it was 2.99 µM (inactive); in the assay on U-251, 15.5 µM (inactive). The GI50 with NCI-H460 is 15.6 µM (inactive); with MDA-MB-435, 13.8 µM (inactive); with CCRF-CEM, 28.3 µM (inactive); in the assay on TK-10, 4.01 µM (inactive); in the assay with HCT-15 it was 3.18 µM; in the assay with SW-620 it was 12.9 µM (inactive). The figures for the GI50 in the assay with HOP-92 and in the assay on Malme-3M were 1.99 µM (inactive) and 12.7 µM (inactive), respectively.
For `CCc1n[nH]c(=O)n1/N=C/c1ccccc1Cl`, the GI50 with EKVX was 1.42 µM (inactive); in the assay on NCI/ADR-RES, > 100 µM (inactive); in the assay on SN12C it was > 100 µM (inactive); in the assay with HCT-116, > 100 µM (inactive); with SK-MEL-5, > 100 µM (inactive); in the assay with SK-MEL-28, > 100 µM (inactive). Besides, the GI50 with MOLT-4 was > 100 µM (inactive); with SF-268 it was 50 µM (inactive); in the assay on HOP-62 it was 76.2 µM (inactive); in the assay on RXF 393, 0.474 µM (active); with SF-539, > 100 µM (inactive); in the assay with U-251, 65.8 µM (inactive). Besides, the GI50 in the assay with NCI-H460 is > 100 µM (inactive); with MDA-MB-435, 85.7 µM (inactive); with CCRF-CEM it was > 100 µM (inactive); in the assay with TK-10, > 100 µM (inactive); with HCT-15, more than 100 µM; in the assay with SW-620, > 100 µM (inactive). Besides, the results for the GI50 in the assay on HOP-92 and with Malme-3M were 74.8 µM (inactive) and > 100 µM (inactive), respectively.
Regarding `Cc1cc(S(=O)(=O)Nc2n[nH]c(-c3ccc(Cl)cc3)n2)c(SSc2cc(Cl)c(C)cc2S(=O)(=O)Nc2n[nH]c(-c3ccc(Cl)cc3)n2)cc1Cl`, the GI50 in the assay on EKVX is 32.5 µM (inactive); with NCI/ADR-RES, 47.1 µM (inactive); in the assay on SN12C, 43.6 µM (inactive); in the assay with HCT-116, 28.5 µM (inactive); with SK-MEL-5, 33.2 µM (inactive); in the assay on SK-MEL-28, 33 µM (inactive). The GI50 with MOLT-4 was 25.8 µM (inactive); with SF-268, 34.1 µM (inactive); in the assay on HOP-62, 54.5 µM (inactive); in the assay on RXF 393, 25.1 µM (inactive); with SF-539, 40.8 µM (inactive); in the assay with U-251, 25.2 µM (inactive). In addition, the GI50 in the assay with NCI-H460 was 22.4 µM (inactive); in the assay on MDA-MB-435, 31.7 µM (inactive); in the assay on CCRF-CEM it was 25.9 µM (inactive); in the assay on TK-10, 58.3 µM (inactive); in the assay on HCT-15, 25.1 µM; in the assay with SW-620, 24.8 µM (inactive). Besides, the results for the GI50 in the assay on HOP-92 and with Malme-3M were 25.1 µM (inactive) and 46.3 µM (inactive), respectively.
With `CCN(CC)CCn1c2cc3c(cc2c(=O)c2cccnc21)OCO3`, the GI50 with EKVX was 5.14 µM (inactive); in the assay with NCI/ADR-RES, 4.93 µM (inactive); with SN12C, 6.4 µM (inactive); in the assay on HCT-116 it was 4.79 µM (inactive); in the assay with SK-MEL-5, 2.77 µM (inactive); with SK-MEL-28, 7.91 µM (inactive). The GI50 in the assay on MOLT-4 was 3.68 µM (inactive); with SF-268 it was 6.71 µM (inactive); in the assay on HOP-62, 3.61 µM (inactive); with RXF 393, 5.86 µM (inactive); in the assay on SF-539, 4.92 µM (inactive); in the assay on U-251, 6.65 µM (inactive). For the same compound, the GI50 is 3.06 µM (inactive) with NCI-H460; 4.71 µM (inactive) with MDA-MB-435; 5.31 µM (inactive) with CCRF-CEM; 6.01 µM (inactive) in the assay with TK-10; 3.72 µM in the assay with HCT-15; 4.26 µM (inactive) in the assay with SW-620. In addition, the GI50 in the assay with HOP-92 was 6.95 µM (inactive); in the assay on Malme-3M, 4.84 µM (inactive).
As for `COc1cc(C(=O)N(C(=S)OC23CC4CC(CC(C4)C2)C3)c2ccccc2)cc(OC)c1OC`, the GI50 with EKVX was 14.8 µM (inactive); in the assay on NCI/ADR-RES, 22.8 µM (inactive); in the assay on SN12C it was 28.6 µM (inactive); with HCT-116, 16.1 µM (inactive); in the assay with SK-MEL-5, 16.1 µM (inactive); in the assay with SK-MEL-28, 30.5 µM (inactive). The GI50 with MOLT-4 was 2.82 µM (inactive); in the assay on SF-268, 35.6 µM (inactive); in the assay on HOP-62, 43.7 µM (inactive); with RXF 393 it was 32.7 µM (inactive); with SF-539, 31.3 µM (inactive); in the assay on U-251, 19 µM (inactive). The GI50 in the assay with NCI-H460 is 27.1 µM (inactive); in the assay on MDA-MB-435 it was 29.5 µM (inactive); in the assay on CCRF-CEM, 2.89 µM (inactive); in the assay with TK-10 it was 42.8 µM (inactive); with HCT-15, 26.5 µM; with SW-620, 22.7 µM (inactive). For the same compound, the figures for the GI50 in the assay on HOP-92 and with Malme-3M were 21 µM (inactive) and 29.1 µM (inactive), respectively.
With `COc1cnnc2c(C)c(-c3ccccc3)nn12`, the GI50 with EKVX was > 100 µM (inactive); in the assay on NCI/ADR-RES, > 100 µM (inactive); in the assay on SN12C it was 30.1 µM (inactive); in the assay with HCT-116, 77.1 µM (inactive); with SK-MEL-5, > 75.5 µM (inactive); in the assay on SK-MEL-28, 71.9 µM (inactive). Further, the GI50 was > 83.6 µM (inactive) with MOLT-4; 82.4 µM (inactive) in the assay with SF-268; > 69.3 µM (inactive) in the assay on HOP-62; 0.436 µM (active) in the assay on RXF 393; > 100 µM (inactive) in the assay on SF-539; > 70.3 µM (inactive) with U-251. Moreover, the GI50 is 66.1 µM (inactive) in the assay with NCI-H460; 77.4 µM (inactive) with MDA-MB-435; > 73.1 µM (inactive) in the assay on CCRF-CEM; > 100 µM (inactive) in the assay on TK-10; more than 100 µM in the assay with HCT-15; > 100 µM (inactive) in the assay on SW-620. Besides, the GI50 in the assay with HOP-92 was 59.3 µM (inactive); in the assay with Malme-3M, 39.6 µM (inactive).
With `Cc1c2c(OCCN3CCCCC3)nn(C)c(=O)c2c(C)n1-c1ccccc1`, the GI50 with EKVX was 50.6 µM (inactive); with NCI/ADR-RES, 42.4 µM (inactive); in the assay on SN12C, 56.1 µM (inactive); in the assay with HCT-116, 38.6 µM (inactive); in the assay on SK-MEL-5, 16.7 µM (inactive); with SK-MEL-28, 25.9 µM (inactive). Moreover, the GI50 was 29.5 µM (inactive) with MOLT-4; 53.1 µM (inactive) in the assay with SF-268; > 100 µM (inactive) in the assay with HOP-62; 33.4 µM (inactive) in the assay with RXF 393; 29.4 µM (inactive) with SF-539; 49.2 µM (inactive) in the assay with U-251. The GI50 with NCI-H460 was 39.2 µM (inactive); with MDA-MB-435, 32.3 µM (inactive); in the assay on CCRF-CEM it was 35.7 µM (inactive); in the assay on TK-10 it was 67.5 µM (inactive); in the assay with HCT-15 it was 32 µM; with SW-620 it was 55 µM (inactive). The GI50 with HOP-92 was 58.9 µM (inactive); in the assay with Malme-3M, 19.1 µM (inactive).
On to `COc1cccc(C2c3cc4c(cc3OC(C)(N3CCCC3)C2C)OCO4)c1O` (stereo not given), for which the GI50 is 7.91 µM (inactive) in the assay on EKVX; 2.72 µM (inactive) in the assay on NCI/ADR-RES; 6.58 µM (inactive) in the assay on SN12C; 4.25 µM (inactive) in the assay on HCT-116; 2.57 µM (inactive) in the assay with SK-MEL-5; 12.2 µM (inactive) with SK-MEL-28. The GI50 in the assay with MOLT-4 is 6.64 µM (inactive); in the assay on SF-268, 8.22 µM (inactive); in the assay with HOP-62, 7.98 µM (inactive); with RXF 393 it was 2.89 µM (inactive); in the assay on SF-539, 4.31 µM (inactive); in the assay with U-251, 4.35 µM (inactive). Further, the GI50 with NCI-H460 was 5.5 µM (inactive); with MDA-MB-435, 1.63 µM (inactive); in the assay with CCRF-CEM, 9.06 µM (inactive); in the assay on TK-10, 5.4 µM (inactive); in the assay with HCT-15, 3.6 µM; with SW-620 it was 4.01 µM (inactive). In addition, the figures for the GI50 in the assay with HOP-92 and in the assay on Malme-3M were 11.5 µM (inactive) and 3.89 µM (inactive), respectively.
`CCCC(=O)Nc1cc(/C=C/C(=O)N2CC(CCl)c3ccc(N)cc32)n(C)c1` (stereo not given): the GI50 was 0.368 µM (active) in the assay with EKVX; 0.447 µM (active) in the assay on NCI/ADR-RES; 0.317 µM (active) with SN12C; 0.129 µM (active) in the assay with HCT-116; 0.11 µM (active) with SK-MEL-5; 0.292 µM (active) in the assay on SK-MEL-28. Besides, the GI50 in the assay on MOLT-4 was 0.17 µM (active); with SF-268 it was 0.259 µM (active); in the assay on HOP-62, 0.484 µM (active); in the assay with RXF 393, 0.0474 µM (active); with SF-539 it was 0.22 µM (active); with U-251 it was 0.324 µM (active). The GI50 in the assay with NCI-H460 is 0.0998 µM (active); with MDA-MB-435, 0.256 µM (active); with CCRF-CEM, 0.195 µM (active); in the assay with TK-10, 0.112 µM (active); with HCT-15, 0.304 µM; with SW-620, 0.29 µM (active). The values for the GI50 in the assay on HOP-92 and in the assay with Malme-3M were 0.0964 µM (active) and 0.18 µM (active), respectively.

Values taken from ChEMBL document CHEMBL1201862, “PubChem BioAssay data set” (2004).
